# Experimental data: patent US10583119B2, “Compounds, compositions and methods for making the same” (Signum Biosciences, Inc., priority 2008, dated 2020)
# Columns and labels:
# Ob/Ob Mice = experiment: Non-fasted glucose levels in ob/ob mice; assay type: in vivo
# Description: They are also hypometabolic and hypothermic. The obesity is characterized by an increase in both the number and the size of adipocytes. Although hyperphagia contributes to the obesity, homozygotes gain excess weight and deposit excess fat even when restricted to a diet sufficient for normal weight maintenance in lean mice. Mice heterozygous for the Lep^ob mutation appear like wild-type and are lean.
# Forty-eight (48) B6.V-Lep^ob/J mice (00632, The Jackson Laboratory, JAX^6 mice), homozygous for the Lep^ob mutation and thirty six (36) controls B6.V-Lep^ob/J-lean, heterozygous for the Lep^ob mutation were used to study the effect of SIG1012 on non-fasted glucose levels. The mice were ear notched for identification and housed in individually and positively ventilated polycarbonate cages with HEPA filtered air at a density of 3 mice per cage. Bed-o-cob corn cob bedding was used and cages were changed every two weeks. The animal room was lighted entirely with artificial fluorescent lighting, with a controlled 12 h light/dark cycle (7 am to 7 pm light). The normal temperature and relative humidity ranges in the animal rooms were 22±4° C. and 50±15%, respectively. The animal rooms were set to have 15 air exchanges per hour. Filtered tap water, acidified to a pH of 2.8 to 3.2, and LabDiet AIN-76A was provided ad libitum.
# Following acclimation, mice were assigned to groups A through G according to their body weight and genotype:
# A Lean heterozygotes—B6.V-Lep^ob/J-lean Mice Fed Control Diet (AIN-76A);
# B Lean heterozygotes—B6.V-Lep^ob/J-lean Mice Fed “Low” Compound I-63 (AIN-76A with 0.001% Compound I-63);
# C Lean heterozygotes—B6.V-Lep^ob/J-lean Mice Fed “Medium” Compound I-63 (AIN-76A with 0.1% Compound I-63);
# D Obese homozygotes—B6. V-Lep^ob/J Mice Fed Control Diet (AIN-76A);
# E Obese homozygotes—B6N-Lep^ob/J Mice Fed “Low” Compound I-63 (AIN-76A with 0.001% Compound I-63); […]
# Mice from Groups A through G were maintained on the respective diet for 14 days and blood glucose levels were measured weekly.
# N2a Neuroblastoma Cells = experiment: Cytotoxicity in N2a neuroblastoma cells (CellTiter 96 AQueous One); assay type: cell-based; conditions: all concentrations tested (1-50 μM)
# Protocol: 2×10^4 N2a cells were plated in each well of a 96-well cell culture plate containing 100 pi EMEM (Gibco), supplemented with 10% FBS (N2a growth medium), and were incubated at 37° C. for 48 hours. On the day of treatment, stock solutions of […] of Compound I-63 in ethanol were further diluted with N2a growth medium to obtain Compound I-63-containing N2a medium with 50 μM, 10 μM, 5 μM and 1 μM Compound I-63. The final concentration of ethanol in all media dilutions was 1%, and therefore 1% ethanol was added to the 0 μM Compound I-63 (untreated) control. The media dilutions were applied to the N2a cells (100 µl per well) and incubated at 37° C. for 4 hours or 24 hours. At the end of the treatment period, cell media was removed and 100 μl of pre-warmed phenol red-free N2a growth media was added to each well. 20 µl of the CellTiter 96® AQueous One Solution (Promega) was added to each well and the dish was incubated at 37° C. for 1-4 hours until visible reddish color develops. The dish was read at a wavelength of 490 nm using a plate reader. N2a cells were grown in 96-well dishes and were treated for 4 hours (♦) or 24 hours (i) with increasing concentrations of Compound I-63. Cell survival was assayed using the CellTiter 96® AQueous One Solution (Promega) using the manufacturer's directions. […]
# [1] = system: Thyl-alpha-synuclein transgenic mice; experiment: Locomotor tests (open field, rota-rod) in alpha-synuclein over-expressing mice; assay type: in vivo; conditions: 0.001% diet (p=0.068)
# Protocol: Transgenic mice over-expressing the full length human alpha-synuclein have been described previously, and are excellent models for sensorimotor tests that are sensitive to alterations in the nigrostriatal dopaminergic system [Fleming, S. M. et. al, J. Neurosci. 24, 9434-40, (2004)].
# Thyl-alpha-synuclein transgenic mice (9-12 weeks old) and age-matched wild type mice were housed in clear plastic cages in a temperature-, and humidity-controlled environment with a 12 hour-light/dark cycle (light switched on at 7 a.m.), and were maintained on an ad libitum diet of lab chow and water. The animal feeds used were either normal (Control) or formulated with Compound I-63 at 0.001% and 0.1%. […]
# Locomotor activity was assessed in an open field paradigm by a Digiscan activity monitor utilizing a grid of infrared beams that record the location and path of the animal (horizontal activity) as well as the number of rearing movements (vertical activity). […] Each mouse was then placed in the middle of an open field chamber (42×42 cm acrylic animal cages, AccuScan Instruments) and locomotion was recorded for 10 min. The infrared light beam sensors were connected to a computer that recorded animal position every millisecond. […] The total number of squares crossed by each mouse was recorded and average horizontal and vertical activities was determined for each group of mice. […]
# PP2A = molecular target: T1, PP2A (Homo sapiens, UniProt P67775); experiment: Phosphatase activity of PP2A using pNPP as substrate; assay type: biochemical; conditions: un-methylated PP2A, non-protein substrate pNPP, absence of ME and MT
# T1 construct: made in house
# Protocol: PP2A (10-200 nM) and pNPP (5-10 mM, Sigma) were mixed into 96-well plate (Fisher Scientific Inc.) in 50 μL of the buffer required. Reactions were performed at room temperature, and fully stopped by adding equal volume of 0.1 M EDTA. Production of p-nitrophenol […] was quantified by absorbance of reaction mixtures at 405 nm using the VMax® microplate reader (Molecular Devices).
# T1 sequence (P67775 whole entry): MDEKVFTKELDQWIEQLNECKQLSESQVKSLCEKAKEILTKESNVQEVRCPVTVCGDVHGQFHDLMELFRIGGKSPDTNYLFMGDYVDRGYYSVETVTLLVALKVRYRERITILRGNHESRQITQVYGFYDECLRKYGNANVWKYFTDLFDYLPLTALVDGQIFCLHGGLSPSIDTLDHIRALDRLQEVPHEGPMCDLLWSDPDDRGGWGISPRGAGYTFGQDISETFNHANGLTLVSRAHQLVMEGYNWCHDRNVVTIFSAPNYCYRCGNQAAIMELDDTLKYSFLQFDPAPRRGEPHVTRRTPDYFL
# T1 sequence (P30153 whole entry partner): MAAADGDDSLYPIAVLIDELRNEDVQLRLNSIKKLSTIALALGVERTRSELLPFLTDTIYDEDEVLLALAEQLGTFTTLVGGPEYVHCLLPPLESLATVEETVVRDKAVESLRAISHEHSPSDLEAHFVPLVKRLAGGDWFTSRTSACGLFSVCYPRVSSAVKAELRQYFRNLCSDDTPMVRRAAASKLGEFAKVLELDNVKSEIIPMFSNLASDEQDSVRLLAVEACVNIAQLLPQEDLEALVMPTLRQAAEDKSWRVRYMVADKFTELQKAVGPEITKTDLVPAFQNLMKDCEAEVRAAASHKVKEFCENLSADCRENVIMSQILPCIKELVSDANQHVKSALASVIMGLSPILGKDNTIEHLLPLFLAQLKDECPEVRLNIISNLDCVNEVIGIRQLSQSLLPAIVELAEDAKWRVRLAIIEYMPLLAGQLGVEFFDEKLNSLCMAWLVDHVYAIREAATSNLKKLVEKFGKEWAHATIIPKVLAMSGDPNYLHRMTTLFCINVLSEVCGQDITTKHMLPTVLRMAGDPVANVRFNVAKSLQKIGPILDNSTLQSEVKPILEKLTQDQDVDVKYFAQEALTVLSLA
smiles,measurement,setting,value
"CCCCCCCCCCCCCCCCCCCC(=O)NCCc1c[nH]c2ccc(O)cc12 [Compound I-63, N-(2-(5-hydroxy-1H-indol-3-yl)ethyl)icosanamide]",effect on non-fasted blood glucose levels,Ob/Ob Mice; heterozygous lean mice control,No effect
same,reduction in non-fasted blood glucose levels,"Ob/Ob Mice; homozygous obese mice, compound in diet for 14 days",26-30%
same,cell survival,N2a Neuroblastoma Cells; 4 hours,over 85%
same,cell survival,N2a Neuroblastoma Cells; 24 hours,over 85%
same,horizontal activity,[1],increase
same,IC50,PP2A,> 100 µM
